In publication PMC12763877 (Journal of Experimental & Clinical Cancer Research : CR, 2025):
Like-named read-outs stand apart in the source and are kept apart here.

Columns and labels:
HUVEC = assay: Sulforhodamine B proliferation assay; format: cell-based, human; details: for IC50: Homo sapiens, HUVEC, read-out: IC50, HUVEC proliferation
Protocol: The culture medium was aspirated from the plates, and cells were fixed with 10% trichloroacetic acid (TCA) for 30 min. The plates were then washed twice with distilled water and air-dried. Subsequently, 0.4% sulforhodamine B (SRB) solution was added, and the plates were stained on a shaker for 20 min. The staining solution was discarded, and excess dye was removed by washing with freshly prepared 1% acetic acid. After air-drying, 10 mM Tris solution was added to each well. The plates were agitated on a shaker for 5 min to dissolve the dye, and the absorbance was measured at 560 nm using a microplate reader.
Angiogenesis is a multi-step process requiring coordinated endothelial functions, such as cell migration, proliferation, and extracellular matrix remodeling. […] Moreover, in the later stages of angiogenesis, vascular endothelial cells undergo proliferation and migration and further align to form cord-like, lumen-like structures(21). Thus, we conducted a vascular tube formation assay to evaluate the effect of candesartan on vascular normalization.

[1] = test system: 4T1 orthotopic breast tumor vasculature; assay: Tumor vascular normalization in breast cancer mouse model (immunofluorescence, lectin perfusion, HIF-1α IHC, H&E); format: in vivo, BALB/c mice
Protocol: The tumor tissues were then excised. […] All animals were raised in an SPF environment. […] We followed all the rules and regulations.
Paraffin-embedded mouse tumor tissue sections were deparaffinized, rehydrated, and fixed with 4% paraformaldehyde at room temperature for 20 min. After washing with PBS, the sections were permeabilized with 1% Triton X-100 (Solarbio, China) for 15 min at room temperature, followed by blocking with 5% bovine serum albumin (BSA) in PBS containing 0.1% Triton X-100 for 1 h at room temperature to reduce nonspecific binding. The sections were first incubated with primary antibodies against PECAM-1 (CD31) and α-smooth muscle actin (α-SMA), including Alexa Fluor 488-conjugated anti-CD31 antibody (clone SC-376764-AF488, Santa Cruz Biotechnology, […]) and rabbit anti-α-SMA antibody (catalog no. AF0048, Beyotime Biotechnology, China). After washing, the sections were further incubated overnight at 4 °C with primary antibodies against dsDNA and HSP60. The next day, the sections were incubated with Alexa Fluor 647-conjugated goat anti-rabbit IgG (H + L) secondary antibody (catalog no. A0468, Beyotime Biotechnology, China) for 1 h at room temperature in the dark. Nuclear staining was performed using DAPI (catalog no. C0060, Solarbio, China). Finally, all slides were mounted with antifade mounting medium and observed using a […] 5 confocal microscope (Leica Microsystems, Germany).
Immunohistochemical staining was performed on formalin-fixed, paraffin-embedded tissue sections. After deparaffinization and rehydration, antigen retrieval was conducted by heating the sections in citrate buffer (pH 6.0) at 95 °C for 12 min. Endogenous peroxidase activity was blocked by incubation with 3% hydrogen peroxide for 10 min at room temperature, followed by blocking of non-specific binding sites with 10% goat serum for 30 min at room temperature. The sections were then incubated overnight at 4 °C with a primary antibody against HIF-1α (rabbit anti-human, catalog no. 48085 T, Cell Signaling Technology, USA) diluted at 1:200. After washing, the sections were incubated with HRP-conjugated goat anti-rabbit IgG secondary antibody (catalog no. A0208, Beyotime Biotechnology, China) at a dilution of 1:500 for 30 min at room temperature. Color development was achieved using a DAB substrate kit, and the sections were counterstained with hematoxylin. After dehydration, clearing, and mounting with neutral resin, the stained sections were observed and imaged under an inverted microscope.
To quantitatively assess vascular maturation, we performed dual immunofluorescence staining for the endothelial cell marker CD31 and pericyte marker α-SMA in tumor tissues. […] In addition, vascular perfusion indicates their transmission function is crucial for the delivery of chemotherapeutic and […] agents. To evaluate the effect of candesartan on tumor vascular perfusion function, DyLight™649-labeled tomato lectin (40 mg/kg), which specifically labels perfused blood vessels, was injected into the mice via tail vein injection 1.5 h before sacrifice. Then, perform frozen sectioning of the tumor tissue, microvessels were labeled with CD31 by immunofluorescence, and the co-expression percentage of tomato lectin and CD31^+ was observed and calculated. As shown in Fig. 4C-D, only a small fraction of CD31^+ blood vessels in the control group were coated with tomato lectin, with a low percentage of CD31^+Lectin^+.

APLNR [2] = target: T1, APLNR (Homo sapiens, UniProt P35414); assay: Surface plasmon resonance (Biacore T200); details: APLNR on CM5 chip, 0.390625-12.5 µM, 1:1 kinetic binding model; read-out: equilibrium dissociation constant (KD)
T1 sequence (P35414 1-380): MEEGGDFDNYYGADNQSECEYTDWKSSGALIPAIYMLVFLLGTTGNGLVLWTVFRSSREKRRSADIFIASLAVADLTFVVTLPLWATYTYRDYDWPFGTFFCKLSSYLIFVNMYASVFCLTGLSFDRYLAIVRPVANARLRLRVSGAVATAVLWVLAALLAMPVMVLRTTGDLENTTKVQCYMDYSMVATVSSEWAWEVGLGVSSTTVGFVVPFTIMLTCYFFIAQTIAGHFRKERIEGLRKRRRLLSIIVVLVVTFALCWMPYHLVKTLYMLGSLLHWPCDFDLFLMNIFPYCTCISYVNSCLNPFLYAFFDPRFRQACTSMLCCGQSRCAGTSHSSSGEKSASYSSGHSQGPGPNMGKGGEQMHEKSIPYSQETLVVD
Protocol: SPR, which is a reliable method for analyzing real-time biomolecular interactions without labeling, was utilized to identify the binding affinity between APLNR and Candesartan. Candesartan is diluted with sterile phosphate-buffered saline (PBS). The APLNR protein is immobilized on a CM5 sensor chip via coupling, and then different concentrations of Candesartan (12.5 µM, 6.25 µM, 3.125 µM, 1.5625 µM, 0.78125 µM, 0.390625 µM) are injected. The Biacore T200 system can continuously and real-time monitor the changes in resonance units (RU), thereby obtaining the binding situation of candesartan with APLNR. The entire sensorgram is fitted using a 1:1 kinetic binding model, and the equilibrium dissociation constant (KD) is calculated.
To further analyze the binding capacity of candesartan to APLNR, we conducted surface plasmon resonance (SPR) analysis to determine the binding affinity between candesartan and APLNR. […] This gradual increase in RU values indicates specific binding of candesartan to APLNR.

APLNR [3] = target: T1, APLNR; assay: FLIPR Calcium 6 assay, inhibition of Apelin-13-induced calcium flux; format: cell-based; design: expressed in transfected cells; host or cells: HEK293
Protocol: HEK293 cells stably expressing APLNR were seeded in 96-well plates (20,000 cells/well) and loaded with Calcium 6 dye (Molecular Devices) for 2 h. Candidate compounds dissolved in DMSO were applied at 2 µM for 15 min, followed by stimulation with the endogenous agonist Apelin-13 (100 nM). Real-time intracellular calcium flux was quantified using FLIPR Tetra® System (470–495 nm excitation/515–575 nm emission).
These candidates were further evaluated for APLNR inhibitory activity at the concentration of 2 µM by using a FLIPR® Calcium 6 Assay Kit, which quantifies ligand-induced intracellular calcium flux.

Q: How did the “Cytotoxicity on HUVEC cells” value (HUVEC; 15 µM) turn out when CCOc1nc2cccc(C(=O)O)c2n1Cc1ccc(-c2ccccc2-c2nnn[nH]2)cc1 [Compound A-2, Candesartan] was run?
A: Its value is “no significant cytotoxicity”.

Q: And the IC50 (HUVEC; 48 h)?
A: Its IC50 is 32.4 ± 1.69 µM.

Q: And the IC50 (HUVEC; 72 h)?
A: The IC50 was 27.1 ± 0.91 µM.

Q: And the “Percentage of CD31+Lectin+ (vascular perfusion)” value ([1]; 10 mg/kg and 30 mg/kg, tomato lectin)?
A: Its value is “significantly increased”.

Q: What about the “Coverage of α-SMA+ pericyte on CD31+ endothelial cell” value ([1]; 10 mg/kg and 30 mg/kg, vs vehicle) of the same molecule?
A: The value was “significant increase”.

Q: And the “HIF-1α expression in tumor tissues” value ([1]; IHC)?
A: Its value is “significant decline”.

Q: And the “Tumor necrosis (H&E)” value ([1]; high-dose 30 mg/kg)?
A: Its value is “tendency towards increased necrosis”.

Q: What about the “Tumor necrosis (H&E)” value ([1]; low-dose 10 mg/kg) of the same molecule?
A: Its value is “reduced necrotic areas”.

Q: And the Kd (APLNR [2])?
A: Its Kd is 1.72 µM.

Q: What about the IC50 (APLNR [3]; FLIPR system, read-out: IC50, inhibition of Apelin-13-mediated calcium mobilization) of the same molecule?
A: The IC50 was 1.21 µM.

Q: What about the inhibition at 2 µM (APLNR [3]; compound 2 µM, 15 min, then Apelin-13 100 nM, HEK293 cells stably expressing APLNR, read-out: Inhibition rate (2 μM, %)) of the same molecule?
A: Its inhibition at 2 µM is 72.3%.
